The results in this text go back to patent US9464064B2, “HCV helicase inhibitors and methods of use thereof” (University of Kansas, priority 2011, dated 2016).

Where two headings read alike, the source gives them in different places. Bounds are passed on as bounds.

For assay [1], the system named is HCV RLuc subgenomic replicon (genotype 1b) in Huh-7.5 cells. The assay can be described thus: HCV subgenomic replicon assay (Renilla luciferase). It counts as cell-based, hepatitis C virus. The text has this: An HCV Renilla luciferase reporter construct (HCV RLuc; Huang, et al. (2006) Hepatology 43:81-90) was used to measure the effect of each compound on cellular HCV RNA levels. In HCV RLuc, the HCV internal ribosome entry site (IRES) drives the translation of the neomycin and Renilla luciferase genes while the HCV nonstructural proteins (NS3 to NS5B) are translated from the Encephalomyocarditis virus IRES (Huang, et al. (2006) supra). The plasmid DNA was cleaved with ScaI, purified by phenol/chloroform extraction followed by ethanol precipitation, and used as template for RNA transcription using […] T7 RNA transcription kit (Ambion, Austin, Tex.). The RNA transcripts were treated with 2 U DNase I (Ambion) at 37° C. for 30 minutes, purified by acid phenol/chloroform extraction, followed by isopropanol precipitation, and suspended in diethylpyrocarbonate-treated water. RNA concentration was determined by spectrophotometry by measuring the A260. RNA integrity and size was checked on 1% agarose gel. Transcribed RNA was stored in aliquots at −80° C. until needed.
Huh-7.5 cells were transfected with HCV RNA by electroporation. Briefly, subconfluent Huh7.5 cells were trypsinized, suspended in complete growth medium, and centrifuged at 1,000×g for 5 minutes at 4° C. The cell pellets were then washed twice with ice-cold phosphate-buffered saline (PBS) and suspended at 1.75×10^7 cells/mL in ice-cold PBS. Replicon RNA (5 μg) was mixed with 0.4 mL of cell suspension and transferred to 2 mm gap width electroporation cuvette (EPPENDORF AG, Germany) and pulsed 5 times for 99 μsec at 820 V over 1.1 sec intervals using the ECM 830 electroporator instrument (BTX Harvard Apparatus, Holliston, Mass.). After a 5 minute recovery period at room temperature, cells were transferred to 10 ml complete growth medium, and seeded into 10 cm diameter cell culture dishes. Twenty-four hours after transfection, the medium was replaced with fresh complete DMEM supplemented with 1 mg/ml geneticin (Invitrogen) and the medium was replaced every three to four days with fresh medium containing 1 mg/mL geneticin. Geneticin-resistant colonies were selected for a period of two weeks and expanded in the presence of 250 μg/mL geneticin.
HCV RLuc replicon cells were seeded at a density of 10×10^3 cells per well in 96-well plates and incubated for 4-5 hours to allow the cells to attach to the plate. The compounds dissolved in dimethyl sulfoxide (DMSO) were added at a final concentration of 10 μM (DMSO solvent final concentration was 0.5%) and the cells were incubated for 72 hours at 37° C. under 5% CO2 atmosphere. The effects of compounds on HCV replication were then assessed by measuring the Renilla luciferase activity in compound-treated versus DMSO-treated cells. At the end of the incubation period, the medium was aspirated and the cells were washed with 1×PBS. The Renilla luciferase reporter gene assay was performed using the Renilla luciferase assay kit (PROMEGA, Madison, Wis.) according to the manufacturer's instructions. Briefly, the cells were lysed by addition of 50 μL of 1× Renilla luciferase lysis buffer followed by two cycles of freeze/thaw. The luciferase activity content of the lysate was measured with a FLUOSTAR Omega microplate reader instrument (BMG Labtech, Germany) after injecting 50 μL of luciferase substrate and reading for 5 seconds.
To determine if the above identified compounds might be useful as HCV antiviral agents, they were added to cells harboring HCV subgenomic RNA replicon. The HCV replicon chosen was derived from the same HCV strain (genotype 1b) as the NS3 protein used for screening and enzyme assays. […] 75:4614-4624; Blight, et al. (2002) J. Virol. 76:13001-13014). […]
Background: In antiviral work, replicon cells carry a viral genome segment that copies itself.

The target of assay [2] is T1, HCV NS3 helicase NS3h_1b(con1) (Hepatitis C virus genotype 1b, UniProt Q9WMX2).
T1 construct: truncated C-terminally His-tagged NS3 proteins lacking the N-terminal protease, called NS3h; His-tag (C); made in house
Nature of the assay: biochemical. It counts as biochemical, hepatitis C virus genotype 1b(con1). In outline:
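Molecular beacon helicase assay with His-tagged recombinant NS3 and a Cy5/IBRQ-labelled partially duplex DNA substrate (25 bp) or Tye665-labelled RNA substrate (19 bp). Reactions started with 1 mM ATP. Screening read fluorescence before and 30 min after ATP (ex 643/em 670 nm). For IC50, 5% v/v DMSO was present, initial velocities came from first-order decay fits, and a Hill equation was applied.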

Setting [3] is: Hepatitis C virus, Huh7.5, 10 μM compound, triplicate, average ± SD, read-out: HCV replication (% Inh.).
[4] abbreviates: Hepatitis C virus, Huh7.5, 10 μM, read-out: Replicon (% Inhibition @ 10 μM).
Where [5] appears, read: MBHA, DNA unwinding, mean ± SD of three titrations, read-out: Helicase IC50.
[6] abbreviates: genotype 1b (con1), read-out: Target Potency MBHA (IC50 avg., μM) 1b (con1).
[7] abbreviates: standard HCV helicase MBHA (Table 9), read-out: DNA Unwinding IC50.
Setting [8] is: DNA-based MBHA, genotype 1b, read-out: DNA Helicase NS3h_1b IC50 (μM) ± SD.

T1 sequence (Q9WMX2 1192-1657): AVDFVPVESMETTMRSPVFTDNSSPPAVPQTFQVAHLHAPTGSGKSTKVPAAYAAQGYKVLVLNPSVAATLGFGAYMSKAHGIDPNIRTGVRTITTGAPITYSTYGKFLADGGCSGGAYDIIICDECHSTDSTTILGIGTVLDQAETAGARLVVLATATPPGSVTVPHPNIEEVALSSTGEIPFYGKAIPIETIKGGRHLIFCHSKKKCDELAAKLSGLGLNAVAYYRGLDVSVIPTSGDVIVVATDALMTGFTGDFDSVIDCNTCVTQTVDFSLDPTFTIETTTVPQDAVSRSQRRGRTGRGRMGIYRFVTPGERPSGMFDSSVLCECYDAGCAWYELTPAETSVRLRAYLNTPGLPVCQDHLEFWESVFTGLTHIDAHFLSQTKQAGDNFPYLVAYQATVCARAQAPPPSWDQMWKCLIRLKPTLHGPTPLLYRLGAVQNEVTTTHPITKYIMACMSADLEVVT

Take `Cc1ccc2nc(-c3ccc4nc(-c5ccc(NC(=O)c6ccc(C(F)(F)F)c(F)c6)cc5)sc4c3)sc2c1S(=O)(=O)O` [Compound 23, 2′-(4-(3-fluoro-4-(trifluoromethyl)benzamido)phenyl)-6-methyl-[2,6′-bibenzo[d]thiazole]-7-sulfonic acid]: the inhibition at 10 µM in assay [1] (setting [3]) and in assay [1] (setting [4]) was 48 ± 4% each time. Also, the values for the IC50 in assay [2] (setting [5]), in assay [2] (setting [6]) and in assay [2] (setting [7]) were 17 ± 17 µM, 17.4 ± 17 µM and 17 ± 17 µM, respectively.

For the molecule `Cc1ccc2nc(-c3ccc4nc(-c5ccc(NC(=O)c6cc(C(F)(F)F)cc(C(F)(F)F)c6)cc5)sc4c3)sc2c1S(=O)(=O)O` [Compound 24, 2′-(4-(3,5-bis(trifluoromethyl)benzamido)phenyl)-6-methyl-[2,6′-bibenzo[d]thiazole]-7-sulfonic acid], the inhibition at 10 µM in assay [1] (setting [3]) and in assay [1] (setting [4]) was 60 ± 4% each time. In assay [1] (Hepatitis C virus, Huh7.5, HCV Rluc subgenomic replicon cells, read-out: concentration needed to reduce replicon-encoded luciferase by 50%), the EC50 was 5 ± 2 µM. Moreover, the “combination of compound 24 and telaprevir on replicon expression” value in assay [1] (Rluc subgenomic HCV replicon cells) was “No synergy”. Moreover, the “loss of HCV replicon Rluc activity” value in assay [1] (elevated concentrations (>10 μM)) was “more than 90%”. Also, the IC50 in assay [2] (setting [8]) is 22 ± 4.2 µM; in assay [2] (setting [5]) it was 22 ± 4 µM; in assay [2] (setting [6]), 22.2 ± 4 µM; in assay [2] (setting [7]), 22 ± 4 µM.

Take `Cc1ccc2nc(-c3ccc4nc(-c5ccc(NC(=O)c6cc(C(F)(F)F)ccc6F)cc5)sc4c3)sc2c1S(=O)(=O)O` [Compound 25, 2′-(4-(2-fluoro-5-(trifluoromethyl)benzamido)phenyl)-6-methyl-[2,6′-bibenzo[d]thiazole]-7-sulfonic acid]: the inhibition at 10 µM in assay [1] (setting [3]) and in assay [1] (setting [4]) was 39 ± 4% in each case. Also, the IC50 worked out at 6 ± 1.9 µM in assay [2] (setting [8]), 6.4 ± 2 µM in assay [2] (setting [5]), 6.4 ± 2 µM in assay [2] (setting [6]) and 6 ± 2 µM in assay [2] (setting [7]).

`Cc1ccc2nc(-c3ccc4nc(-c5ccc(NC(=O)c6cc(F)ccc6C(F)(F)F)cc5)sc4c3)sc2c1S(=O)(=O)O` [Compound 26, 2′-(4-(5-fluoro-2-(trifluoromethyl)benzamido)phenyl)-6-methyl-[2,6′-bibenzo[d]thiazole]-7-sulfonic acid]: the inhibition at 10 µM in assay [1] (setting [3]) and in assay [1] (setting [4]) was 61 ± 14% each time. For the same molecule, the IC50 in assay [2] (setting [5]), in assay [2] (setting [6]) and in assay [2] (setting [7]) was 19 ± 15 µM throughout.

As to `Cc1ccc2nc(-c3ccc4nc(-c5ccc(NC(=O)c6cc(F)cc(C(F)(F)F)c6)cc5)sc4c3)sc2c1S(=O)(=O)O` [Compound 27, 2′-(4-(3-fluoro-5-(trifluoromethyl)benzamido)phenyl)-6-methyl-[2,6′-bibenzo[d]thiazole]-7-sulfonic acid], the inhibition at 10 µM in assay [1] (setting [3]) and in assay [1] (setting [4]) was 51 ± 9% in each case. In addition, the IC50 in assay [2] (setting [5]) is 28 ± 7 µM; in assay [2] (setting [6]), 28.4 ± 7 µM.

In the case of `Cc1ccc(NC(=O)Nc2ccc(-c3nc4ccc(-c5nc6ccc(C)c(S(=O)(=O)O)c6s5)cc4s3)cc2)cc1` [Compound 28, 6-methyl-2′-(4-(3-(p-tolyl)ureido)phenyl)-[2,6′-bibenzo[d]thiazole]-7-sulfonic acid], the inhibition at 10 µM in assay [1] (setting [3]) and in assay [1] (setting [4]) was 43 ± 9% in each case. The IC50 came out at 5.3 ± 0.9 µM in assay [2] (setting [5]), 5.3 ± 0.9 µM in assay [2] (setting [6]) and 5 ± 1 µM in assay [2] (setting [7]).

In the case of `COc1ccc(S(=O)(=O)Nc2ccc(-c3nc4ccc(-c5nc6ccc(C)c(S(=O)(=O)O)c6s5)cc4s3)cc2)cc1` [Compound 29, 2′-(4-(4-methoxyphenylsulfonamido)phenyl)-6-methyl-[2,6′-bibenzo[d]thiazole]-7-sulfonic acid], the inhibition at 10 µM in assay [1] (setting [3]) and in assay [1] (setting [4]) was 44 ± 5% each time. In addition, the IC50 in assay [2] (setting [5]) amounted to 24 ± 2.2 µM; in assay [2] (setting [6]), 24.4 ± 2.2 µM; in assay [2] (setting [7]) it was 24 ± 2 µM.

On to `CC(=O)Nc1ccc(-c2nc3ccc(-c4nc5ccc(C)c(S(=O)(=O)O)c5s4)cc3s2)cc1` [Compound 30, 2′-(4-acetamidophenyl)-6-methyl-[2,6′-bibenzo[d]thiazole]-7-sulfonic acid], for which the inhibition at 10 µM in assay [1] (setting [3]) is 1 ± 12%; in assay [1] (setting [4]) it was 26 ± 21%. Further, the IC50 in assay [2] (setting [5]) was more than 100 µM; in assay [2] (setting [6]) it was more than 100 µM; in assay [2] (setting [7]), 227 ± 107 µM.

On to `Cc1ccc2nc(-c3ccc4nc(-c5ccc(NC(=O)c6ccc7ccccc7c6)cc5)sc4c3)sc2c1S(=O)(=O)O` [Compound 33, 2′-(4-(2-naphthamido)phenyl)-6-methyl-[2,6′-bibenzo[d]thiazole]-7-sulfonic acid], for which the inhibition at 10 µM came out at 61 ± 10% in assay [1] (setting [3]) and 21 ± 33% in assay [1] (setting [4]). The IC50 was 3 ± 0.7 µM in assay [2] (setting [8]), 2.7 ± 0.7 µM in assay [2] (setting [5]), 3.6 µM in assay [2] (setting [6]) and 4 µM in assay [2] (setting [7]).

Take `Cc1ccc2nc(-c3ccc4nc(-c5ccc(N(C)C(=O)c6ccc7ccccc7c6)cc5)sc4c3)sc2c1S(=O)(=O)O` [Compound 34, 6-methyl-2′-(4-(N-methyl-2-naphthamido)phenyl)-[2,6′-bibenzo[d]thiazole]-7-sulfonic acid]: the values for the inhibition at 10 µM in assay [1] (setting [3]) and in assay [1] (setting [4]) were -30 ± 30% and 24 ± 32%, respectively. Moreover, the IC50 is 14 ± 0.1 µM in assay [2] (setting [5]), 14.4 ± 0.04 µM in assay [2] (setting [6]) and 14 µM in assay [2] (setting [7]).

As for `Cc1ccc2nc(-c3ccc4nc(-c5ccc(NC(=O)c6ccc7nc(-c8ccc(N)cc8)sc7c6)cc5)sc4c3)sc2c1S(=O)(=O)O` [Compound 35, 2′-(4-(2-(4-aminophenyl)benzo[d]thiazole-6-carboxamido)phenyl)-6-methyl-[2,6′-bibenzo[d]thiazole]-7-sulfonic acid], the inhibition at 10 µM in assay [1] (setting [3]) and in assay [1] (setting [4]) was 37 ± 4% in each case. Besides, the IC50 stood at 6 ± 2.1 µM in assay [2] (setting [8]), 5.5 ± 2.1 µM in assay [2] (setting [5]), 5.5 ± 2.1 µM in assay [2] (setting [6]) and 6 ± 2 µM in assay [2] (setting [7]).

With `Cc1ccc2nc(-c3ccc4nc(-c5ccc(NC(=O)c6ccc7nc(-c8ccc(NC(=O)OCC9c%10ccccc%10-c%10ccccc%109)cc8)sc7c6)cc5)sc4c3)sc2c1S(=O)(=O)O.N` [Compound 36], the inhibition at 10 µM in assay [1] (setting [3]) is 42 ± 5%; in assay [1] (setting [4]) it was 44 ± 9%. The IC50 amounted to 4 ± 2.4 µM in assay [2] (setting [5]), 4 ± 2.4 µM in assay [2] (setting [6]) and 4 ± 2 µM in assay [2] (setting [7]).

With `Cc1ccc2nc(-c3ccc(NC(=O)c4ccc(NC(=O)c5ccccc5)cc4)cc3)sc2c1S(=O)(=O)O.N` [Compound 40], the inhibition at 10 µM in assay [1] (setting [4]) is -19 ± 42%. The IC50 in assay [2] (setting [6]) turned out to be 81.4 ± 22 µM; in assay [2] (setting [7]), 81 ± 22 µM.

`Cc1ccc2nc(-c3ccc4nc(-c5ccc(NC(=O)c6ccc(CNC(=O)OCC7c8ccccc8-c8ccccc87)cc6)cc5)sc4c3)sc2c1S(=O)(=O)O.N` [Compound 41]: the inhibition at 10 µM in assay [1] (setting [4]) stood at 48 ± 18%. Further, the IC50 in assay [2] (setting [6]) turned out to be 4.4 ± 0.3 µM; in assay [2] (setting [7]), 4 µM.

Regarding `Cc1ccc2nc(-c3ccc(NC(=O)c4ccc(NC(=O)OCC5c6ccccc6-c6ccccc65)cc4)cc3)sc2c1S(=O)(=O)O.N` [Compound 42], the inhibition at 10 µM in assay [1] (setting [4]) was determined as 31 ± 10%. Moreover, the IC50 is 12 ± 3.7 µM in assay [2] (setting [6]) and 12 ± 4 µM in assay [2] (setting [7]).

Broadly, the IC50 is the concentration that gives 50% inhibition.
